Results taken from US20260183262A1, “RNA-BINDING MOTIF PROTEIN 39 (RBM39) DEGRADERS FOR TREATMENT OF CANCERS” (RECURSION PHARMACEUTICALS, INC., priority 2022, published 2026).

Experiments:
[1] = tested on: CDK12 knockout; experiment: High content phenotypic CRISPR/Cas9 screen in HUVEC cells: CDK12 knockout phenocopy; type: cell-based, human; conditions: wild-type HUVEC cells; machine vision analysis
Description: (§1) As disclosed herein, numerous small molecules have been investigated for HRD deficient and PARP inhibitor resistant cancers and it was confirmed that E7820 is efficacious alone or in combination with PARP inhibitors in preclinical mouse cancer models. To select E7820 as a potential therapeutic for this disease, a high content phenotypic whole genome arrayed CRISPR/Cas9 screen was developed in HUVEC cells to identify cellular and structural changes associated between the genetic knockout of human genes. This high dimensional biological data set of single gene knockout phenotypes was then compared to the cellular and structural changes arising from the treatment of over 200,000 small molecules in intron-controlled wild-type HUVEC cells. […] RBM39 degraders, such as these aryl sulfonamides, may therefore be used to treat cancers where CDK12 is a suitable therapeutic target, for example, cancers where patients develop resistance to PARP inhibitors or cancers with HRD negative/HR-proficient tumors. Similar to depletion of CDK12, RBM39 degraders may be used to induce a synthetic lethality phenotype when combined with DDR inhibitors such as PARP inhibitors, thus enabling treatment of patients who would not derive benefit from treatment with the DDR inhibitor in the absence of an RBM39 degrader.

[2] = tested on: RNA-binding motif protein 39 (RBM39) CRISPR/Cas9 knockout; experiment: High content phenotypic CRISPR/Cas9 screen in HUVEC cells: RBM39 knockout phenocopy; type: cell-based, human; conditions: wild-type HUVEC cells; machine vision analysis
Description: as §1

[3] = tested on: OVCAR3 cells; experiment: CellTiter-Glo cell viability assay in OVCAR3 cell line; type: cell-based, human; conditions: 72 h
Experimental: • Cell culture: OVCAR3 is a human ovarian cancer cell line that is BRCA-proficient and HRD negative. Pharmaron in China acquired this cell line for in vitro testing. OVCAR3 human ovarian tumor cells were maintained in vitro with RPMI-1640 (Glutamax)+0.01 mg/ml insulin+20% FBS+1% PS • Cell Seeding: Cells were harvested from flask into cell culture medium and counted. Cells were diluted with culture medium for below cell densities and 8000 OVCAR cells were plated per well in a 384-well plate (PerkinElmer, Cat. #6007680), using electronic multichannel pipette in 40 μL. For the low control wells, 40 μL PBS was added. […] Plates were covered with lid and spun at 1 min/1000 rpm followed by incubation overnight at 37° C., 5% CO2. • Compound Time: SR4835 and THZ531 were dissolved at 10 mM stock solution and diluted in a 3-fold, 9-point diluted series. Cells were treated with 40 nL of SR4835 and THZ531 by plate reformat Echo550 followed by incubation at 37° C. for 72 h in a CO2 incubator. For the high control, 40 nL DMSO was added. • Readout: CellTiter-Glo@ 2.0 Reagent (Promega, G9242) was removed from the fridge and equilibrated at RT(23° C.) for 60 minutes. Plates were removed from the incubator and allowed to equilibrate to room temperature, for at least 15 minutes. 30 μL CellTiter-Glo® 2.0 Reagent was added to the assay plates and allowed to sit for 30 minutes prior to reading. Luminescence signal was read on Envision. • Calculation: Cell viability (% DMSO control) was calculated using the following equation
• Cell culture: OVCAR3 is a human ovarian cancer cell line that is BRCA-proficient and HRD negative. Pharmaron in China acquired this cell line for in vitro testing. OVCAR3 human ovarian tumor cells were maintained in vitro with RPMI-1640 (Glutamax)+0.01 mg/ml insulin+20% FBS. • Cell Seeding: Cells were harvested from flask into cell culture medium and counted. Cells were diluted with culture medium for below cell densities and 8000 OVCAR cells were plated per well in a 384-well plate (PerkinElmer, Cat. #6007680), using electronic multichannel pipette in 50 μL For the low control wells, 50 μL PBS was added. […] Cells were treated with E7820 and indisulam by plate reformat Echo software and spun 1 min/1000 rpm followed by incubation at 37° C. for 72 h in a CO2 incubator. • Readout: CellTiter-Glo@ 2.0 Reagent (Promega, G9242) was removed from the fridge and equilibrated at RT (23° C.) for 60 minutes. […] 40 μL CellTiter-Glo® 2.0 Reagent was added to the assay plates, and spun 1 min/1000 rpm, then allowed to sit for 20 minutes prior to reading. Luminescence signal was read on Envision. • Calculation: Cell viability (% DMSO control) was calculated using the following equation

[4] = biological target: T1, CDK12+Cyclin K (Homo sapiens, UniProt Q9NYV4); experiment: NanoBRET target engagement intracellular kinase assay in HEK293; type: cell-based; conditions: HEK293 cells transfected with CDK12-NanoLuc and CCNK; up to 10 μM
T1 construct: host or cells: HEK293 (transient transfection, FuGENE HD)
T1 sequence (Q9NYV4 whole entry): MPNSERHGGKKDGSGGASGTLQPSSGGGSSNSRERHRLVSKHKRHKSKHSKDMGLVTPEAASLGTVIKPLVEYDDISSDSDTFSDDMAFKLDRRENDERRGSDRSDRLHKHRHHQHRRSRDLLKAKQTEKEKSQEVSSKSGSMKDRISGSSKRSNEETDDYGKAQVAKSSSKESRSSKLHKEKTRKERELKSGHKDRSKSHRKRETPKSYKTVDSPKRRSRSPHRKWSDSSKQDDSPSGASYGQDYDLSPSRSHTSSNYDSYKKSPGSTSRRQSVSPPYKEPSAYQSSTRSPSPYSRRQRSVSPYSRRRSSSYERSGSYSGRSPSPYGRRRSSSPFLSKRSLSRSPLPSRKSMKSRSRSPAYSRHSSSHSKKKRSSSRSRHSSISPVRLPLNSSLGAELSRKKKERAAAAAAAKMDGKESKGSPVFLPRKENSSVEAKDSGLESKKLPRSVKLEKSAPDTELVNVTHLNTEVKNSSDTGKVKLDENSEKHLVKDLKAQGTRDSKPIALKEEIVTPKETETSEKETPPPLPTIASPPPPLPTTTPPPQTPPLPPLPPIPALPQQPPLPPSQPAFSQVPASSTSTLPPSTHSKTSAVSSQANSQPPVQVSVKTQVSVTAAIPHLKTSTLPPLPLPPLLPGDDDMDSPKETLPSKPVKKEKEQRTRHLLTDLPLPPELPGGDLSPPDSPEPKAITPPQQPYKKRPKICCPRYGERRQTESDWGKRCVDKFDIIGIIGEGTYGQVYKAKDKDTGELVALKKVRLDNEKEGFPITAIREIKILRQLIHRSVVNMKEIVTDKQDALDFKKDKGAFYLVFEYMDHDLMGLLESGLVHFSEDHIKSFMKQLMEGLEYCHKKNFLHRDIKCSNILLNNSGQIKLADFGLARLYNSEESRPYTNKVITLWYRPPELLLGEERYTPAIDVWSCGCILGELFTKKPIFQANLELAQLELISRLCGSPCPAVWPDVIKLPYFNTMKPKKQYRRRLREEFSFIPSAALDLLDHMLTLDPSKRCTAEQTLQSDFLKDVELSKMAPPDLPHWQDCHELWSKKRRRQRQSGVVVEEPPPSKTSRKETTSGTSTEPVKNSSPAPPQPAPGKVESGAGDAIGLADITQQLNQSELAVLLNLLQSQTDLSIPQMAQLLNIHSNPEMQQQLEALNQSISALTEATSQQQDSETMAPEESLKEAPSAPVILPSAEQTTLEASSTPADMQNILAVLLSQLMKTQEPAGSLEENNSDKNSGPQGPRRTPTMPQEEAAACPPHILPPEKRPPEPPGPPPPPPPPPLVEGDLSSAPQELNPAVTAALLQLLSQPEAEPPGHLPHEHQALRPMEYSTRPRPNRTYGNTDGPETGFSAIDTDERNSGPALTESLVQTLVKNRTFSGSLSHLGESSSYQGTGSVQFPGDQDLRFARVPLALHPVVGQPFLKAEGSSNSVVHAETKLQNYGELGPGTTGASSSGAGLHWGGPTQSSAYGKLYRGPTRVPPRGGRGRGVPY
T1 sequence (O75909 whole entry partner): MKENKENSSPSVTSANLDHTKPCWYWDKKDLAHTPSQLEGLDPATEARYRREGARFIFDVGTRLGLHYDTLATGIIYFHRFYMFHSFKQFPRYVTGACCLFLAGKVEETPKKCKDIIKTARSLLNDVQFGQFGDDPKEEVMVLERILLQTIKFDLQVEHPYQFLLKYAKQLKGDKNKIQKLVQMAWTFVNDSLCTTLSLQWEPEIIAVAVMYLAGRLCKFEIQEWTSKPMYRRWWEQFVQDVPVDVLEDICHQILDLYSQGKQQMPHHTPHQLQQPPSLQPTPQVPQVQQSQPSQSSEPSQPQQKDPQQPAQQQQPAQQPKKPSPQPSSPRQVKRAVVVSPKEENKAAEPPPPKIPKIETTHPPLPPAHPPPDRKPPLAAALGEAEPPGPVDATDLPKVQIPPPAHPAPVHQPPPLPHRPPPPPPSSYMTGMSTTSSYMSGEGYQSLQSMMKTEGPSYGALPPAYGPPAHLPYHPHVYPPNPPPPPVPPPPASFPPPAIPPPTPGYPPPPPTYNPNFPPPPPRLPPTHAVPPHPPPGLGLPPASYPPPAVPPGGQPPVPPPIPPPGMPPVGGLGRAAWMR
Experimental: • Cell culture: CDK12 NanoBRET assay kit was obtained from Reaction Biology with experiment performed by Pharmaron. HEK293 cells were cultured using 90% DMEM with 10% FBS. Cells were cultivated in T-75 flasks in a cell culture incubator set at 37° C., 5% CO^2, 95% relative humidity. Once cells reached 80-90% confluence, they were detached and split. Cultivated cells in T-75 flasks were rinsed with 5 mL PB and aspirated off. 1.5 mL trypsin was added and incubated at 37° C. for approximately 5 minutes or until the cells detached and started to float. Trypsin was inactivated by adding excess serum containing medium. • Transient Transfection of HEK293 Cells: Cell culture medium was removed from cell flask by aspiration and trypsinized, allowing cells to dissociate from flask. Trypsin was neutralized using cell culture medium and centrifuged at 200×g for 5 minutes to pellet cells. Medium was aspirated and resuspended in assay medium consisting of 99% Opti-MEM, reduced serum medium with no phenol red and 1% FBS. Density was adjusted to 2×10^5 cells/ml using assay medium. 10 μg/ml solution of DNA in Opti-MEM was prepared consisting of 9 μg/mL of CCNK, 1 ug/mL of Kinase-NanoLuc fusion vector DNA CDK12, and 1 mL of Opti-MEM. This solution was mixed thoroughly. 30 μl of FuGENE HD Transfection Reagent was added into each milliliter of DNA mixture to form lipid: DNA complex. Mixture was inverted 5-10 times and incubated at ambient temperature for 20 minutes to allow complexes to form. In a sterile, conical tub, 1 part of lipid DNA complex (1 mL) was mixed with 20 parts of HEK293 cells (20 mL) in suspension at 2×10^5 cells/mL. Tube was mixed gently by inversion 5 times. […] Lastly, 20 μL of this 3× complete substrate plus inhibitor solution was added to each well of the 384-well plate and incubated for 2-3 minutes at room temperature and read the plate on the Envision. • Calculation: BRET Ratio was calculated as follows: […]

Row | SMILES | phenocopy of CDK12 knockout (cellular and structural changes) [1] | phenocopy of RBM39 CRISPR/Cas9 knockout [2] | cell viability [3] | CDK12 kinase activity [4]
1 | Nc1ccc(S(=O)(=O)Nc2cnc3c(Cl)cccc3n2)cc1 [CQS] | phenocopy CDK12 loss | phenocopy RNA-binding motif protein 39 (RBM39) CRISPR/Cas9 knockout | – | –
2 | Cn1cc(-n2cnc3c(NCc4nc5cc(Cl)c(Cl)cc5[nH]4)nc(N4CCOCC4)nc32)cn1 [SR4835] | – | – | dose-dependent decreases in cell viability | –
3 | CN(C)C/C=C/C(=O)Nc1ccc(C(=O)N2CCC[C@@H](Nc3ncc(Cl)c(-c4c[nH]c5ccccc45)n3)C2)cc1 [THZ531] | – | – | dose-dependent decreases in cell viability | dose-dependent inhibition of kinase function
4 | NS(=O)(=O)c1ccc(S(=O)(=O)Nc2cccc3c(Cl)c[nH]c23)cc1 [indisulam] | phenocopy CDK12 loss | phenocopy RNA-binding motif protein 39 (RBM39) CRISPR/Cas9 knockout | minimal effect on cell viability | does not affect CDK12 kinase activity
5 | O=C(NS(=O)(=O)c1ccc(Br)s1)c1ccc(Cl)cc1Cl [tasisulam] | phenocopy CDK12 loss | phenocopy RNA-binding motif protein 39 (RBM39) CRISPR/Cas9 knockout | – | –
